Patent publication US20230141823A1, “PREBIOTIC AND PROBIOTIC TREATMENT TO REDUCE ORAL DYSBIOSIS AND PROMOTE EUBIOSIS” (FUNDACIÓN PARA EL FOMENTO DE LA INVESTIGACIÓN SANITARIA Y …, priority 2019, published 2023)
Like-named read-outs stand apart in the source and are kept apart here.

Tests used:
[1] = tested on: oral biofilms grown from unstimulated saliva; settings: 6.5 mM nitrate
Procedure: (§1) BHI medium (Biolife) with an additional 0.05 mg/L haemin, 0.005 mg/L menadione and 0.2 mM vitamin K (all Sigma-Aldrich) was prepared of which 100 pi was added to each well for background impedance measurements. An additional 25 µl of a 65 mM nitrate in water or just water were added to each well of the nitrate or control condition, respectively. Then, 125 pi freshly collected saliva was added, leading to a final concentration of 6.5 mM nitrate in the nitrate condition. The E-Plate 96 was placed in the xCELLigence system inside an incubator at 37° C. Every 10 minutes, a Cell Index measurement was taken. […] For Oh measurements, 1:1 medium and saliva mixtures were used. Then, duplicates of supernatant and biofilm were taken after 5 h and 9 h of growth. The supernatant was sampled and stored at −20° C. until pH, nitrate, nitrite, ammonium and lactate measurements. After this, a PBS washing step was performed and duplicates of biofilms were resuspended together in 200 pi PBS for storage at −20° C. until DNA isolation for sequencing.
For DNA extraction, the biofilms were resuspended in 100 pi PBS and disaggregated 30 s in a sonicator bath (model Raypa VCI-50) at low ultrasound intensity. After this, DNA was isolated by MagNA Pure LC 2.0 Instrument (Roche Diagnostics), using the MagNA Pure LC DNA Isolation Kit III for Bacteria and Fungi (Roche Diagnostics) following the manufacturer's instructions with an additional enzymatic lysis step: to a salivary pellet in 100 pi PBS, […] lysis buffer and […] of enzyme mix, containing 20 mg/ml lysozyme ([…]), 5 mg/l lysostaphin (Sigma-Aldrich) and 0.625 mg/ml mutanolysin (Sigma-Aldrich), were added and incubated for 60 min at 37° C. DNA was resuspended in […] elution buffer and frozen at −20° C. until further analysis. To determine the amount of DNA for sequencing, the Quant-iT™ PicoGreen® dsDNA Assay Kit (ThermoFisher) and a Qubit™ 3 Fluorometer (ThermoScientific) were used, according to manufacturer's instructions.
A pre-amplification step of the V1-V5 regions of the 16S rRNA gene was performed, following Dzidic et al 2019. An Illumina amplicon library was performed following the 16S rDNA gene Metagenomic Sequencing Library Preparation Illumina protocol (Part #15044223 Rev. A). The gene-specific primer sequences used in this protocol were 16S Amplicon F (SEQ ID NO: 8) and 16S Amplicon R (SEQ ID NO: 9), targeting the 16S rDNA gene V3 and V4 regions, resulting in a single amplicon of 460 bp. Overhang adapter sequences were used together for compatibility with Illumina index and sequencing adapters. After 16S rDNA gene amplification, the DNA was sequenced on a MiSeq Sequencer according to manufacturer's instructions (Illumina) using the 2×300 bp paired-ends protocol.
The sequences were analyzed according to Boix-Amoros et al., 2016. In short, the reads were quality-filtered and end-trimmed in 10 bp windows with Prinseq. The PCR chimeras were removed with UCHIME according to Edgar et al., 2011. Only filtered sequences >250 bp were used to be taxonomically assigned at the genus level with the classifier of the Ribosomal Database Project (Wang et al., 2007), using a confidence interval of 80%. Operational Taxonomic Unit (OTU) picking was performed using VSEARCH (Rognes, 2016) at a 97% of sequence identity. Each OTU was aligned centroid using BLAST at 97% of identity and 100% query coverage, and retrieved only those species that agreed with the previous classification of the centroid at genus level provided by RDP classifier.
Overall R programming language was used for statistical computing to perform downstream analyses. Genera with an abundance of <0.01% were removed from all groups.

[2] = in vivo; cited from earlier work
[3] = tested on: unstimulated saliva
Procedure: The unstimulated saliva of D25-D33 was used to test the effect of different concentrations of nitrate on a pH drop caused by 0.2% of glucose after 5 h of incubation. For each donor, 187 µl of saliva and 22 µl of glucose (2% diluted in water) was added per well of a standard 96-well plate. Then, 11 pL of water without or with different concentrations of nitrate was added, leading to final concentrations of 0 mM, 0.5 mM, 1 mM, 1.5 mM, 2.5 mM, 3.5 mM, 4.5 mM, 5.5 mM, 6.5 mM, 7.5 mM and 8.5 mM of nitrate. The plate was sealed with adhesive aluminum foil (VWR) and incubated during 5 h at 37° C. After incubation, the samples were stored at −20° C. until pH measurements.
(§2) For the nitrate, nitrite, ammonium, lactate and pH measurements, the RQflex® 10 Reflectoquant® (Merck Millipores), a reflectometer that measures the reflection of color changing test strips, was used.

[4] = tested on: oral biofilms grown from unstimulated saliva
Procedure: as §1, §2
In the case of nitrate, nitrite, ammonium and lactate measurements, the supernatant of the cultures was diluted 1:10 with water to minimize the interference of medium compounds. […] For pH measurements, undiluted supernatant was used. For all measurements except ammonium, 15 pi of (diluted) supernatant was added to two reactive patches on a strip, excess liquid was removed by tipping the side of the strip on a tissue, the corresponding incubation time was applied for each measurement, and the strip was put inside the reflectometer.
Nitrite was measured first. The diluted supernatants in which 0.5 mg/l or more nitrite was detected were treated with amidosulfuric acid to remove nitrite before nitrate measurements. For this, […] of diluted supernatant was mixed with 1.5 ml amidosulfuric acid solution (10%), and directly added to the strips.
For ammonium measurements, aliquots were made of […] diluted supernatant to which 10 m l of reagent 1 of the kit was added first and resuspended well. Then, […] of a freshly made mixture of one scoop of reagent 2 (both provided with the kit) dissolved in 1.25 ml water was added directly and resuspended well. This solution was then directly added to the strips and incubated. Five seconds before the measurements, excess liquid was removed. All measured concentrations were adjusted by dilution factors.

[5] = tested on: oral biofilm grown from saliva of donors D2 and D25; test: Effect of isolates on in vitro biofilms: colonization by sequencing; format: cell-based, human; settings: 5 h of growth
Procedure: Six isolates selected as best potential probiotics based on the results from previous experiments were studied in vitro to define the effect of these isolates when they are added to an oral biofilm. These isolates were tested by growing them with saliva of two different donors (D2 and D25 in our database) in a 96-wells plate. For each experiment, there were 4 conditions: control, nitrate (i.e., 6.5 mM nitrate), control+isolate, and nitrate+isolate. […] Then, 100 pL of saliva (or BHI for negative controls) was added and, for the nitrate conditions, 10 pL of nitrate solution 65 mM was added (or 10 pL of BHI for control conditions). Negative controls were added in each experiment: only BHI medium and BHI medium+nitrate. Before being added to the 96-well plate, the isolates were grown for 24 h. Then, 40 pL isolate in BHI solution with OD 1.5 was added (or 40 pL of just BHI in conditions without isolates) to each well. The final concentration of nitrate was 6.5 mM and starting OD of the isolate was 0.24. The 96-well plate was sealed to prevent oxygen presence, and incubated during 5 h 30 min at 37° C. After that, the supernatant was collected, the pellet resuspended in 30 pL of PBS and both stored at −20° C. until measurements were performed. The DNA was extracted and the biofilms were sequenced as described in EXAMPLE 1.

[6] = adult of 60 kg; cited from earlier work
[7] = tested on: biofilms from subgingival plaque of patients with periodontitis
Procedure: In addition to the oral biofilms from healthy individuals provided in EXAMPLE 1, ex vivo experiments with a dysbiotic community (subgingival plaque samples from patients with periodontitis) were performed. Eleven patients diagnosed with periodontitis were enrolled into the study. Subgingival plaque was collected by inserting eight to ten sterile paper points inside the deepest periodontal pockets. The paper points were then transferred to a 2 mL tube containing reduced transport media (RTF) and stored in a cooling box at around 4° C. for max. 18 hours. For the biofilm growth, BHI containing vitamin K and hemin (as described in EXAMPLE 1) was used. Transport medium was removed by centrifugation (1 min, 12000 rpm), followed by resuspension into 1 mL BHI. The xCELLigence system described in EXAMPLE 1 was used. Patient samples were incubated under four different conditions; control, nitrate, control+probiotic and nitrate+probiotic. First, 100 µl of periodontal plaque in BHI was added to the wells. Then, for the nitrate condition, 5 µl of 250 mM nitrate in BHI was added to the wells to obtain a 5 mM nitrate concentration. For the control+probiotic and nitrate+probiotic conditions, 45 pi of R. aeria D1P7 culture of OD (600 nm)=0.417 was added to the wells, resulting in a final OD (600 nm) of 0.075 per well. BHI was added to reach a final volume of 250 pi. A medium control (without patient sample or probiotic) with nitrate (Cntr) was used to determine the initial amounts of nitrate and nitrite in the medium. After 7 hours of incubation, supernatant and biofilm was harvested for nitrate/nitrite measurements and 16S rRNA gene sequencing, respectively (both described in EXAMPLE 1).

[8] = tested on: oral biofilms grown from unstimulated saliva; remark: listed apart in the source
Procedure: as §1

[9] = Donor 2, Nitrate condition (6.5 mM)
[10] = Donor 25, Nitrate condition (6.5 mM)

## O=[N+]([O-])O [Nitrate, nitrate]
[1]; 5 h
  increase of Neisseria compared to control condition: 3.5 ×
[1]; 5 h (n = 12)
  Bacterial abundance Aggregatibacter (Average): 0.55%
  Bacterial abundance Alloprevotella (Average): 0.21%
  Bacterial abundance Fusobacterium (Average): 0.15%
  Bacterial abundance Gemella (Average): 2.76%
  Bacterial abundance Granulicatella (Average): 2.16%
  Bacterial abundance Haemophilus (Average): 7.30%
  Bacterial abundance Leptotrichia (Average): 0.14%
  Bacterial abundance Neisseria (Average): 20.65%
  Bacterial abundance Other (Average): 3.64%
  Bacterial abundance Porphyromonas (Average): 0.56%
  Bacterial abundance Prevotella (Average): 1.99%
  Bacterial abundance Rothia (Average): 0.53%
  Bacterial abundance Streptococcus (Average): 45.29%
  Bacterial abundance Viellonella (Average): 10.84%
  Bacterial abundance unclass. Neisseriaceae (Average): 0.95%
  Bacterial abundance unclass. Pasteurellaceae (Average): 2.00%
  Bacterial abundance unclass. Veillonellaceae (Average): 0.26%
[1]; 5 h and 9 h
  Rothia higher than in control condition: 2.7 ×
[1]; 9 h
  increase of Neisseria compared to control condition: 4.9 ×
[1]; 9 h (n = 12)
  Bacterial abundance Aggregatibacter (Average): 0.72%
  Bacterial abundance Alloprevotella (Average): 0.37%
  Bacterial abundance Fusobacterium (Average): 0.38%
  Bacterial abundance Gemella (Average): 1.83%
  Bacterial abundance Granulicatella (Average): 1.56%
  Bacterial abundance Haemophilus (Average): 8.86%
  Bacterial abundance Leptotrichia (Average): 0.16%
  Bacterial abundance Neisseria (Average): 20.99%
  Bacterial abundance Other (Average): 4.80%
  Bacterial abundance Porphyromonas (Average): 1.51%
  Bacterial abundance Prevotella (Average): 2.78%
  Bacterial abundance Rothia (Average): 0.25%
  Bacterial abundance Streptococcus (Average): 31.75%
  Bacterial abundance Viellonella (Average): 20.40%
  Bacterial abundance unclass. Neisseriaceae (Average): 1.07%
  Bacterial abundance unclass. Pasteurellaceae (Average): 2.12%
  Bacterial abundance unclass. Veillonellaceae (Average): 0.38%
[1]; after 5 h, p<0.05
  change of Kingella: increased significantly
[1]; p<0.05 at 5 h and/or 9 h
  Porphyromonas, Fusobacterium, Leptotrichia, Alloprevotella, Dialister and Parvimonas versus control: significantly lower
[1]; p<0.05 at 5 h or 5 h and 9 h
  change of caries-associated Atopobium and Oribacterium: decreased significantly
[2]
  nitrate recycled by the salivary glands into saliva: 25%
  nitrate removed from the body by the kidneys into the urine: Around 75%
[3]; 0.2% glucose, nitrate 0.5 mM to 8.5 mM
  salivary pH after 5 h compared to 0 mM nitrate: higher pH
[3]; after 5 h
  nitrate concentrations for which no additional benefits were observed: above 3.5 mM
  nitrate concentrations that prevented salivary acidification due to glucose fermentation: ≥ 0.5 mM
[4]; 6.5 mM nitrate added, 5 of 12 donors
  decrease of nitrate after 5 h: 76-85%
[4]; 6.5 mM nitrate added, 7 of 12 individuals
  nitrate left after 5 h: no nitrate detectable
[4]; 6.5 mM nitrate condition, 5 h (1.64 mg/l at 0 h)
  average nitrite in supernatant: 64.68 mg/L
[4]; 6.5 mM nitrate, 5 h and 9 h, p<0.005
  pH compared to control condition: significantly higher
[4]; after 9 h
  share of the 6.5 mM added nitrate accounted for by ammonium (stoichiometric): 73.1%
[4]; nitrate condition (control 1.72×)
  increase of average ammonium after 5 h: 2.21 ×
[4]; nitrate condition (control 4.74×)
  increase of average lactate after 5 h: 3.40 ×
[4]; nitrate condition, after 9 h
  ammonium higher than in the control condition: 4.75 mM
[5]; [9]
  R. aeria (%) in biofilm: 0.06%
  R. mucilaginosa (%) in biofilm: 2.33%
[5]; [10]
  R. aeria (%) in biofilm: 0.03%
  R. mucilaginosa (%) in biofilm: 7.94%
[6]
  Acceptable Daily Intake, ADI: 222 mg
[7]; 11 patients, 7 h
  mean growth curve of the periodontitis biofilms versus control condition: lower
[7]; 7 hours, versus control
  levels of periodontal pathogens such as Porphyromonas, Eikenella and Tannerella: reducing the levels
[7]; periodontal samples (n=11), anaerobic
  nitrate reduced after the 7 hours of growth: around 20%
[8]; 6.5 mM nitrate (403 mg/L)
  real-time impedance measurements of biofilm growth compared to control biofilms: did not show significant changes
[8]; 6.5 mM nitrate, 5 h and 9 h
  biofilm protein levels compared to control: did not differ significantly
